Measurements: patent US20220088115A1, “PHARMACEUTICAL COMPOSITION, COMPRISING INHIBITORY PEPTIDE AGAINST FAS SIGNALING, FOR PREVENTION OR TREATMENT OF OBESITY, FATTY LIVER, OR STEATOHEPATITIS” (SIGNET BIOTECH INC., priority 2018, published 2022)

Experiments:
[1] = system: obesity model mice; test: Crown-like structure (CLS) in white adipose tissues, obesity model mice, intravenous FBP-8; format: in vivo, C57BL/6 mice; details: compared to negative control (CtrFBP)
Method: (§1) All animal experiments performed for the present invention were approved by the Institutional Animal Care and Use Committee of Hanyang University. […] Thereafter, depending on the experimental group, 60 μg/one time of FBP8 were administered by intravenous injection twice a week for a total of 5 weeks (FIG. 13), or FBP7 was administered by subcutaneous injection twice a day.
(§2) Liver tissue and white adipose tissue sections were stained with hematoxylin & eosin and then histologically analyzed under an optical microscope.

[2] = biological target: T1, Fas (Homo sapiens, UniProt P25445); test: Binding of Alexa647-labeled peptides to Fas-expressing Jurkat cell line; details: Jurkat cell line always expressing Fas; Alexa647-labeled peptide
T1 construct: A Jurkat cell line, in which Fas is always expressed; host or cells: Jurkat
T1 sequence (P25445 26-335): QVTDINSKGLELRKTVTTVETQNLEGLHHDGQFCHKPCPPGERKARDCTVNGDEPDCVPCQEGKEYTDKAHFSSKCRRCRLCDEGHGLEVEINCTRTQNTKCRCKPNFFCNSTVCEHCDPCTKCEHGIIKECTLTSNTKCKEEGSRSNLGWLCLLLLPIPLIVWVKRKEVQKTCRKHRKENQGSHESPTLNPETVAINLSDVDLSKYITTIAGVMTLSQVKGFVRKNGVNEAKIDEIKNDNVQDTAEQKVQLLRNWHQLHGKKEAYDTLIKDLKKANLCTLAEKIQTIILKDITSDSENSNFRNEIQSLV
Method: A Jurkat cell line which is a human blood cancer cell line and a 3T3L1 cell line which is a murine adipocyte were purchased from ATCC (USA), and the Jurkat cell line was cultured in an RPMI culture medium containing 10% fetal bovine serum (FBS), 1% penicillin, 1% streptomycin, and 25 mM glucose.
A Jurkat cell line, in which Fas is always expressed, was treated with an FITC-labeled Fas antibody and treated with Alexa647-labeled FBP-8, FBP-A, FBP-7 or control peptide (YCNSTVCY; CtrFBP).

[3] = biological target: T2, Fas (Mus musculus, UniProt P25446); test: Binding of fluorescently labeled peptide to Fas in liver and white adipose tissue sections of HFD mice; details: sections from high fat diet (HFD) group
T2 construct: from tissue; host or cells: liver and white adipose tissue sections of high-fat-diet C57BL/6 mice
T2 sequence (P25446 22-327): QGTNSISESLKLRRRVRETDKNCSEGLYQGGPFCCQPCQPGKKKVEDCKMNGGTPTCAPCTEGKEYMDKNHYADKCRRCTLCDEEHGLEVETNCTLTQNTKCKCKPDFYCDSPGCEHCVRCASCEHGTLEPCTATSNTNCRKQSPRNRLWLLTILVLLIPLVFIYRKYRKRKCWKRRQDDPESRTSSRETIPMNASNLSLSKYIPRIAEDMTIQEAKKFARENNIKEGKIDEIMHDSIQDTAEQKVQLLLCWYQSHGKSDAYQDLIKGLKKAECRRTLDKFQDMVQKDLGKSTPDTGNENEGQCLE
Method: After the animal experiment was completed, mice were sacrificed to isolate liver tissues and white adipose tissues and prepare tissue sections. The prepared liver tissue and white adipose tissue sections were treated with an antigen retrieval buffer at 95° C. for 25 minutes and then cooled at room temperature. Thereafter, the tissue sections were treated with Tris Based Saline+Tween20 (TBST) containing 1% bovine serum albumin (BSA), 10% goat serum and 0.05% Tween 20 to undergo a blocking process, and were reacted with a Fas receptor-specific primary antibody at 4° C. for 18 hours. Thereafter, tissue sections were washed with TBST and reacted with a FITC-bound secondary antibody at room temperature for 2 hours.
In addition, in order to examine the tissue-binding ability of the peptide, the peptide to which Alexa 488 was bound was reacted with the primary antibody at 4° C. for 18 hours. The nuclei were stained with Hoechst 33342 (GE Healthcare), washed with TBST, and then confirmed.
The fluorescence signal of each tissue section was analyzed under a TCS-SP5 confocal microscope (Leica, Germany).

[4] = system: 3T3L1 cell line; test: Inflammation-related cytokines in 3T3L1 cell culture solution (ELISA); format: cell-based, murine; details: 3T3L1 treated with FasL and FBP-8
Method: (§3) The 3T3L1 cell line was cultured in a DMEM culture medium containing 10% FBS, 1% penicillin, 1% streptomycin, and 25 mM glucose. The 3T3L1 cell line was aliquoted into the above DMEM culture solution at a concentration of 2×10^5 cells/ml to induce adipocyte maturation for 3 days, and then replaced with a culture solution containing insulin to induce adipocyte maturation again for 3 days. Thereafter, the 3T3L1 cell line was further cultured in the above DMEM culture solution for 2 days to achieve complete maturation of adipocytes.
(§4) The cytokine levels of serum and tissues were analyzed with an ELISA kit (eBioscience, USA), and the triglyceride levels of liver tissues were confirmed with a triglyceride assay kit (Cayman, USA).

[5] = system: obesity model mice; test: Liver morphology, weight and histological analysis, obesity model mice, intravenous FBP-8; format: in vivo, C57BL/6 mice
Method: as §1, §2

[6] = system: 3T3L1 cell line; test: Cytotoxicity by CCK-8 analysis kit in 3T3L1 cell line; format: cell-based, murine; details: differentiated 3T3L1 cell lines, 100 μM to 1000 μM, 24 hours
Method: as §3
The cytotoxicity experiments of the peptides described in 1. above were performed by a CCK-8 analysis kit (Dojindo Laboratories, Japan). The 3T3L1 cell line was treated with peptides at various concentrations (uM) and cytotoxicity was analyzed after 24 hours.

[7] = system: obesity model mice; test: Blood fatty acid, insulin, triglyceride, ALT and liver triglyceride, obesity model mice, intravenous FBP-8; format: in vivo, C57BL/6 mice
Method: as §1, §4

[8] = compared to negative control (CtrFBP)

YCDEHFCY (Fas binding peptide-8 (FBP-8))
crown-like structure (CLS) in white adipose tissues [1]: remarkably reduced
binding to Jurkat cells (Alexa647 signal) [2]: bound to Jurkat cells at similar levels
co-staining with Fas-specific antibody in liver and white adipose tissue sections [3]: the stained sites coincided
concentrations of IL-6 and MCP-1 in the cell culture solution [4]: reduces
damage to the liver tissue (histological analysis) [5]: inhibited
size of the liver tissue [5, 8]: smaller
weight of the liver tissue [5, 8]: lighter
cytotoxicity [6]: little cytotoxicity was observed
reduction of triglyceride (TG) concentration in blood [7]: about 25%
reduction of triglyceride (TG) concentration in the liver tissue [7]: about 50%
decrease of fatty acid concentration in blood [7, 8]: about 20%
decrease of insulin concentration in blood [7, 8]: about 20%
reduction of blood alanine aminotransferase (ALT) level [7, 8]: ≥ 30%
